Data as given in US9505763B2, “Cancer treatment using BMP inhibitor” (Vanderbilt University, priority 2011, dated 2016).

Legend:
[1] = test system: Id1, Id2, and Id3 expression; test: Quantitative RT-PCR for Id family members; assay type: cell-based; settings: A549 and H1299 cell lines; 10 μM Dorsomorphin, 1 μM DMH1 or DMH2; 48 hours
Protocol: Quantification of Gene Expression. RNA was extracted using the RNeasy kit as per the manufacturer's instructions (Qiagen, Valencia, Calif.). DNAase was used to remove any DNA contamination. cDNA was generated using Advantage RT for PCR kit (BD BiosciencesClontech, Palo Alto, Calif.). Quantitative PCR was performed with the Stratagene Mx3005p (Agilent Technologies) and predesigned validated Taq-Man gene expression assays according to the manufacturer's specifications (Applied Biosystems, Foster City, Calif.). Reference numbers used are: GAPDH (Hs99999905_m1), ACVRL1 (alk1) (Hs00163543_m1), ACVR1A (alk2) (Hs00153836_m1), BMR1A (alk3) (Hs00831730_s1), BMPR1B (alk6) (Hs00176144_m1), Id1 (Hs00357821_g1), Id2 (Hs00747379_m1), and Id3 (Hs00171409-m1). Negative control included all reagents except cDNA. Expression was normalized to GAPDH using the formula […].

Id1 and Id3 protein = test: Western blot for Id1 and Id3; assay type: cell-based; settings: for protein levels of Id1 and Id3: A549 and H1299 cells
Protocol: (§1) Western Blot Analysis. Total cellular protein was prepared using RIPA buffer containing a protease inhibitor cocktail and protein concentration was measured using the BCA assay as described. In brief, protein was analyzed by SDS-PAGE, transferred to nitrocellulose (Schleicher and Schuell, Keene, N.H.). After blocking, the blots were incubated overnight at 4° C. with the appropriate primary antibody in Tris-buffered saline with 1% Tween (TBST) and 5% non-fat milk. Secondary antibodies were applied for 1 hour at room temperature. Specific proteins were detected using the enhanced chemiluminescence system (Amersham, Arlington Heights, Ill.). The primary antibodies that were used were rabbit monoclonal anti-pSmad 1/5/8 (Cell signaling Technology, Danvers Mass.) rabbit anti-actin, an affinity isolated antigen specific antibody (Sigma, Saint Louis, Mo.), rabbit monoclonal anti-Id1 and rabbit monoclonal anti-Id3 (Calbioreagents, San Mateo, Calif.).

Smad 1/5/8 activity = test: BRE-luciferase reporter assay; assay type: cell-based; settings: H1299 cells; 10 μM Dorsomorphin or 1 μM DMH1, DMH2, LDN; 48 hours; vs DMSO
Protocol: Luciferase Assays. 10^6 H1299 cells were transfected with 2 μg of BRE-luciferace plasmid using a Nucleofector II. […] Cells were lysed with luciferase lysis buffer (Promega). Samples were added to luciferase assay substrate (Promega) and luminsescence measured by the TD-20/20 Luminometer (Turner Designs/Turner BioSystems, Sunnyvale, Calif.). Control samples included luciferase assay substrate alone and luciferase assay substrate plus 1× reporter lysis buffer.

alk6 = target: T1, alk6 (Mus musculus, UniProt P36898); settings: reported [26]; cited from earlier work
T1 construct: host or cells: C2C12

[2] = test system: constitutively active alk6 (ca-alk6); test: BRE-luciferase with constitutively active alk6 in H1299 cells; assay type: cell-based; settings: 1 μM antagonist
Protocol: (§2) To assess the effects of antagonists on a specific type I BMP receptor, 2 μg of constitutively active ca-alk3 and ca-alk6 expression vectors were co-transfected with the BRE-luciferase reporter into H1299 cells with Nucleofector II. Control cells were co-transfected with the pcDNA3 expression vector. After 48 hours the cells were treated with DMSO or a BMP receptor antagonist for 48 hours and luminescence was measured.

AMP kinase = settings: compared with Dorsomorphin and LDN; cited from earlier work
[3] = test system: phosphorylated Smad 1/5/8; test: Western blot for phosphorylated Smad 1/5/8; assay type: cell-based; settings: for level of phosphorylated Smad 1/5/8 expression: lung cancer cell lines (H1299, A549)
Protocol: as §1

[4] = target: T2, constitutively active alk3 (ca-alk3) (Homo sapiens, UniProt P36894, Q233D); test: BRE-luciferase with constitutively active alk3 in H1299 cells; assay type: cell-based; settings: 1 μM antagonist
T2 construct: expressed in transfected cells; host or cells: H1299
Protocol: as §2

VEGF II = VEGF II (Homo sapiens, UniProt P35968); settings: compared with Dorsomorphin and LDN; cited from earlier work
TGFβ receptor alk5 = target: T3, TGFβ receptor alk5 (Homo sapiens, UniProt P36897); settings: compared with Dorsomorphin and LDN; cited from earlier work
T3 sequence (P36897 34-503): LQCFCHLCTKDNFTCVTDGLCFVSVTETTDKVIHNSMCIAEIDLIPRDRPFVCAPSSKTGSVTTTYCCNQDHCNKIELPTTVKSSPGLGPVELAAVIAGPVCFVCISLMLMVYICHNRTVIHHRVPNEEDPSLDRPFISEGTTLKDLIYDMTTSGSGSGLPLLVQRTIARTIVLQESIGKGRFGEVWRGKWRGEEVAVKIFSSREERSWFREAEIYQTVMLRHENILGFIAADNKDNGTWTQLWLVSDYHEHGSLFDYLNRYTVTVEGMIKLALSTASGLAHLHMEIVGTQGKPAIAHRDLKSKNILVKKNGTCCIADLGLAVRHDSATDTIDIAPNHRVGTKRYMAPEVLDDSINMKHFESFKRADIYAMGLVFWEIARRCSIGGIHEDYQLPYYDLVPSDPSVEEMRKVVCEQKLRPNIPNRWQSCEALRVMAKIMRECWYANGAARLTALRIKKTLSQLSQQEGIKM

alk2 = target: T4, alk2 (Mus musculus, UniProt P37172); settings: reported [26]; cited from earlier work
T4 construct: host or cells: C2C12
T4 sequence (P37172 21-509): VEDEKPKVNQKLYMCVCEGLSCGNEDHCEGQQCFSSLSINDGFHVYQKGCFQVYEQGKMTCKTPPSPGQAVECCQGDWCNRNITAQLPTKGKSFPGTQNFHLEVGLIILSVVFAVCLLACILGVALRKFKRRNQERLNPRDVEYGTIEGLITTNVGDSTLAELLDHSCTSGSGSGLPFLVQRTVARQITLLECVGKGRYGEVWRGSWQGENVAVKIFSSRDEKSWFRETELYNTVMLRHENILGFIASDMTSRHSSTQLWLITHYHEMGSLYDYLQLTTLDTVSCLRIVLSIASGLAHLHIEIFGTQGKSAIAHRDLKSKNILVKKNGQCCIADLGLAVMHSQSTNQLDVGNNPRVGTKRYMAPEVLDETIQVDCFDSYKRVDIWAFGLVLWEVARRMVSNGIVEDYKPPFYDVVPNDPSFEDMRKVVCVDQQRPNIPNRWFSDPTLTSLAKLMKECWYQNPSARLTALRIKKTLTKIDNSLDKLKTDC

H1299 cells [5] = test: Soft agar assay (anchorage independent growth); assay type: cell-based; settings: H1299 in soft agar; 1 μM; 2 weeks
Protocol: (§3) Soft Agar Assay. A 1% agar mixture was prepared in sterile double-distilled water, microwaved, and cooled to 40° C. in a water bath. DMEM was also incubated at 40° C. Equal amounts of each were mixed and 1 ml added to each well of a six well plate. The base agar was allowed to solidify. A 0.7% agar mixture was prepared then cooled to 40° degrees. Cells were trypsinized and counted. Cells (2500 cells per well) were placed in pre-warmed DMEM containing DMSO or DMH1 […]. The treated cells were then mixed with the 0.7% agar and 2 ml placed on top of the base agar. Once solidified, 1 ml of DMEM was placed on top of the agar. […]

A549 cells [6] = test: Soft agar assay (anchorage independent growth); assay type: cell-based; settings: A549 in soft agar; 1 μM; 2 weeks
Protocol: as §3

A549 cells [7] = test: Ethidium bromide uptake cell death assay; assay type: cell-based; settings: 48 hours, 10 μM Dorsomorphin or 1 μM selective antagonist
Protocol: Cell Death Assay: A549 and H1299 cells were plated in 6 well plates with 10^6 cells per well. Cells were treated with DMSO or a BMP receptor antagonist for 12 and 48 hours. Adherent and floating cells were harvested and incubated with 0.1 mg/ml of ethidium bromide. Immediately after staining approximately 100 cells were counted and the percentage of cells that took up ethidium bromide was determined.

[8] = target: platelet-derived growth factor receptor-β (Homo sapiens, UniProt P09619); settings: compared with Dorsomorphin and LDN; cited from earlier work
alk3 = target: T5, alk3 (Mus musculus, UniProt P36895); settings: reported [26]; cited from earlier work
T5 construct: host or cells: C2C12

H1299 cells [9] = test: Clonogenic growth assay; assay type: cell-based; settings: 1 μM, 2 weeks
Protocol: (§4) Clonigenic Growth Assay. A549 and H1299 cells were plated into 6 well plates with 500 cells per well. The next day the cells were treated with DMSO or a BMP receptor antagonist for 2 weeks. The colonies were stained with Diff-Quick (IMEB Inc. San Marcos, Calif.) and the total number of colonies per well counted.

A549 cells [10] = test: Clonogenic growth assay; assay type: cell-based; settings: 1 μM, 2 weeks
Protocol: as §4

H1299 cells [11] = test: Cell counts after 7 days; assay type: cell-based; settings: H1299, DMEM 5% FCS, 10 μM Dorsomorphin or 1 μM DMH1, DMH2, LDN
Protocol: (§5) Cell Counts. A549 and H1299 cells were plated into 6 well plates with 100,000 cells per well. Cells were treated with DMSO or a BMP receptor antagonist for 7 days. The cells were detached with trypsin, stained with trypan blue, and the number of live cells counted using a hemacytometer.

A549 cells [12] = test: Cell counts after 7 days; assay type: cell-based; settings: DMEM 5% FCS, 10 μM Dorsomorphin or 1 μM DMH1, DMH2, LDN
Protocol: as §5

T1 sequence (P36898 14-502): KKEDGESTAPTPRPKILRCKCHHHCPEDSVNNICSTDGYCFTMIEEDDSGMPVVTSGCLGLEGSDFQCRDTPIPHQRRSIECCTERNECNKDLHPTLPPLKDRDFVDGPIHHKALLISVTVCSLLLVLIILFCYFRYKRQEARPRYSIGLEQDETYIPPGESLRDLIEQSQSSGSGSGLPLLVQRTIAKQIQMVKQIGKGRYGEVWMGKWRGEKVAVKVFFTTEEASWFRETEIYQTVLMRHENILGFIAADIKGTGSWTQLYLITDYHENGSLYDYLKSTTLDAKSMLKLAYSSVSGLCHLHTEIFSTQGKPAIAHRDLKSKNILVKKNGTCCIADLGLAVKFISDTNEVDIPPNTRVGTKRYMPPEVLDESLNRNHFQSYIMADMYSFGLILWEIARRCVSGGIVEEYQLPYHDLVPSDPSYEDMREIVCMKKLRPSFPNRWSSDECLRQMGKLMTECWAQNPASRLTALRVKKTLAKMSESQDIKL
T5 sequence (P36895 24-532): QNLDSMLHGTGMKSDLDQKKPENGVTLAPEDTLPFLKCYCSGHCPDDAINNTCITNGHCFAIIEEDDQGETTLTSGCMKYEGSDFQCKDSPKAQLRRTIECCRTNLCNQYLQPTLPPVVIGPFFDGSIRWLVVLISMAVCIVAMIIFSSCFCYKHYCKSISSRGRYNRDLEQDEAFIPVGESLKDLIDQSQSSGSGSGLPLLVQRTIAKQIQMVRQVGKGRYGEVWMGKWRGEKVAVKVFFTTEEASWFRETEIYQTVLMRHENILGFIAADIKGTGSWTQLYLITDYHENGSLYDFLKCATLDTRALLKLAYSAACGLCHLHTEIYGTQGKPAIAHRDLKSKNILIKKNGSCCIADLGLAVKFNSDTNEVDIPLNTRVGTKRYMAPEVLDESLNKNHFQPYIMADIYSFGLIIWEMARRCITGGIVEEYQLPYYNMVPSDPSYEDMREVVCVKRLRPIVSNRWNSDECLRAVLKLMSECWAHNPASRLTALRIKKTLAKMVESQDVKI
T2 sequence (P36894 24-532 Q233D): as the sequence (P36895 24-532) above, with L16S, P21S, T74A, V133L, V142I, G164R, Q210D, I373V counted along it
Chain of platelet-derived growth factor receptor-β (P09619 33-1106, species assumed): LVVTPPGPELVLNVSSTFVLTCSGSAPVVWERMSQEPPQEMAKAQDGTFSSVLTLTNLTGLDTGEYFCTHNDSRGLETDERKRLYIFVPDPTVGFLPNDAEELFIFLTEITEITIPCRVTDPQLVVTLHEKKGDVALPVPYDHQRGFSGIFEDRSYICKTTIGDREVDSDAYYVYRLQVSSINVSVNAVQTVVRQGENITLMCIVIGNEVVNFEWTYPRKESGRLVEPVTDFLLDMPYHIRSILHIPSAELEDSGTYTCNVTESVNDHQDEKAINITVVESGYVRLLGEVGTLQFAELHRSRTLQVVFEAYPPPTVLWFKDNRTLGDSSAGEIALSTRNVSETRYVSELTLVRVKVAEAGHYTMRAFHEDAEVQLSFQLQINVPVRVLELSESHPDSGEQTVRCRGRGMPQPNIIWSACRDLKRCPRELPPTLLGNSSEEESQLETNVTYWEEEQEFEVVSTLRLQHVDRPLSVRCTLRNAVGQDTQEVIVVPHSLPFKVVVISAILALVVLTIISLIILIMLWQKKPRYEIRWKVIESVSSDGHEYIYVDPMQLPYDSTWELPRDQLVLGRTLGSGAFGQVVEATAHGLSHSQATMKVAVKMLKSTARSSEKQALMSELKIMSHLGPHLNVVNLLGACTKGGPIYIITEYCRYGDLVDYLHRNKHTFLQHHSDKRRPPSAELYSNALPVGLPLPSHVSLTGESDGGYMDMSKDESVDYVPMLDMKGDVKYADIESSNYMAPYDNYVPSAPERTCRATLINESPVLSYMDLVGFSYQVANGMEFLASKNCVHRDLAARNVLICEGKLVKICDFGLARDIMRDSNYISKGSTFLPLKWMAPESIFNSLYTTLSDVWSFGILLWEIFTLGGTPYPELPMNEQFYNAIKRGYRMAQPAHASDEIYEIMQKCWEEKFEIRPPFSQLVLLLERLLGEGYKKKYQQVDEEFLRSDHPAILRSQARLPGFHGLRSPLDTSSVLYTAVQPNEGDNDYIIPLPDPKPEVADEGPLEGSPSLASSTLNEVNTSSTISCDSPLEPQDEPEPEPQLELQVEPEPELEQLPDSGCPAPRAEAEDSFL
Chain of VEGF II (P35968 20-1356): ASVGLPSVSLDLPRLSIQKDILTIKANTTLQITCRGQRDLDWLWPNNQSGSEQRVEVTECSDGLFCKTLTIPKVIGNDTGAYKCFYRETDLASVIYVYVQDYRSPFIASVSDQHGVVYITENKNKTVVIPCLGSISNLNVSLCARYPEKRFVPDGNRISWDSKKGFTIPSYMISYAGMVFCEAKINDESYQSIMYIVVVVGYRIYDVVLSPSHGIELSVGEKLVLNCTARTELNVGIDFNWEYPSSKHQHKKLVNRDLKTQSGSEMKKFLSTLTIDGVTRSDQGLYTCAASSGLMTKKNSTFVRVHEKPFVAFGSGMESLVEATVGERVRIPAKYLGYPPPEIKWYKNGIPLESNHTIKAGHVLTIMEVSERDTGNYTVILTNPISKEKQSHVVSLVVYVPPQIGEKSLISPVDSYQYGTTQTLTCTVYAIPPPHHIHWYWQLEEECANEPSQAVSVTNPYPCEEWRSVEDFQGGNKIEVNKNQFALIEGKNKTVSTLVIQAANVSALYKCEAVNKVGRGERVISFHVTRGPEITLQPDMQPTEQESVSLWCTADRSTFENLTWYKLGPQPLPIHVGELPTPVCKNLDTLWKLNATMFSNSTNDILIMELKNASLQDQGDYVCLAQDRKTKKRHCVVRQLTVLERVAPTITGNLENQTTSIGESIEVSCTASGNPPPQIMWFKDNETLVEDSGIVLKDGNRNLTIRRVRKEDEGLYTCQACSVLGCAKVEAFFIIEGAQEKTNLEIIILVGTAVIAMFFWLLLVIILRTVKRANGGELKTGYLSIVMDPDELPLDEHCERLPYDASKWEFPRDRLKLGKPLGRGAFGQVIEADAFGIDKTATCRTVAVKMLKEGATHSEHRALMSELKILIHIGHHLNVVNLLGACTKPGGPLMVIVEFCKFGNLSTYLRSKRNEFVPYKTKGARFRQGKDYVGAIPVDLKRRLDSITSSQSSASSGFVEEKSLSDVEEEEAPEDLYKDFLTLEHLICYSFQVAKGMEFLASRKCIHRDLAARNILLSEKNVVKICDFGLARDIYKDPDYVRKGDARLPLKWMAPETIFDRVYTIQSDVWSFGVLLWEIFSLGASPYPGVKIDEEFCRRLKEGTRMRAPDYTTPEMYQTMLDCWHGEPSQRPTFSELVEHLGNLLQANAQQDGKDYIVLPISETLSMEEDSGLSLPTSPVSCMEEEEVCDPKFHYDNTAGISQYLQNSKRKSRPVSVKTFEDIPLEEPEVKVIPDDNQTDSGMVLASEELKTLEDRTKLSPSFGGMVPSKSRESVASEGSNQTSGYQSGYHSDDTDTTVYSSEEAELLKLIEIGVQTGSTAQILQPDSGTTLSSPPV

## CC(C)Oc1ccc(-c2cnc3c(-c4ccnc5ccccc45)cnn3c2)cc1 [DMH1]
[1]
  Id1, Id2, and Id3 expression (mRNA): significantly decreased
Id1 and Id3 protein
  protein levels of Id1 and Id3: decrease
Id1 and Id3 protein; H1299 and A549 cells, 1 μM
  reduction of Id1 protein expression (comparison): greater reduction of Id1 in H1299 cells compared to A549 cells
Smad 1/5/8 activity
  Smad 1/5/8 activity (BRE-luciferase activity): significant decrease
alk6
  inhibition of alk6 activity: negligible inhibitory effects
[2]
  inhibition of ca-alk6 activity (BRE-luciferase): partially inhibited alk6 but not as effectively as DMH2
AMP kinase
  activity for AMP kinase (comparison): less activity
[3]
  level of phosphorylated Smad 1/5/8 expression: decreased
[4]
  inhibition of ca-alk3 activity (BRE-luciferase): significant inhibition
VEGF II
  activity for VEGF II (comparison): less activity
TGFβ receptor alk5
  activity for TGFβ receptor alk5 (comparison): less activity
alk2
  inhibition of alk2 activity: inhibited
H1299 cells [5]
  anchorage independent growth: significantly reduced
A549 cells [6]
  anchorage independent growth: significantly reduced
A549 cells [7]
  cell death (percentage of cells taking up ethidium bromide): significant increase in cell death
[8]
  activity for platelet-derived growth factor receptor-β (comparison): less activity
alk3
  inhibition of alk3 activity: inhibited

## c1ccc2c(-c3cnn4cc(-c5ccc(N6CCNCC6)cc5)cnc34)ccnc2c1 [LDN, LDN-193189, reference compound]
Id1 and Id3 protein
  protein levels of Id1 and Id3: decrease
Smad 1/5/8 activity
  Smad 1/5/8 activity (BRE-luciferase activity): significant decrease
alk6
  inhibition of alk6 activity: effectively inhibits
[2]
  inhibition of ca-alk6 activity (BRE-luciferase): very similar to that of DMH2
AMP kinase
  activity for AMP kinase (comparison): less AMP kinse activity than Dorsomorphin
[3]; A549 cells
  phosphorylated Smad 1/5/8 expression: decrease
[3]
  level of phosphorylated Smad 1/5/8 expression: decreased
H1299 cells [9]
  clonogenic growth: inhibited more by DMH2 and LDN than DMH1
A549 cells [10]
  clonogenic growth: inhibited more by DMH2 and LDN than DMH1
alk2
  inhibition of alk2 activity: effectively inhibits
H1299 cells [11]
  cell growth (number of cells): more growth inhibition than DMH1
A549 cells [12]
  cell growth (number of cells): more growth inhibition than DMH1
alk3
  inhibition of alk3 activity: effectively inhibits
